Reference: PubChem BioAssay AID1919006 (Molecular Pharmacology Branch, DTP, NCI, 2023)
One block for each compound: values may come before it.

Test system: 885512-296-R-J2-PDC complex spheroid growth, % test/control
Test: Anticancer human tumor 885512-296-R-J2-PDC patient-derived breast carcinoma cell line growth inhibition [AhR]
Settings: for IC50: curve of first compound; for viability, T/C: stronger effect = lower value
Description: Multicellular complex tumor spheroid response to aryl hydrocarbon receptor antagonists in combination with a variety of drugs and investigational agents in selected tumor cell lines
The current study was undertaken to assess response to aryl hydrocarbon receptor antagonists in combination with standard-of-care drugs and investigational agents in solid tumor complex spheroid models. Complex spheroids include a stromal component modeled by human endothelial cells (HUVEC) and fibroblasts modeled by human mesenchymal stem cells (MSCs). The concentration ranges selected for each drug and investigational agent were based upon clinically achievable concentrations if the clinical Cmax of the agent was known.
Compounds. The drugs and investigational agents: BAY 2416964 (NSC825713), GNF351 (NSC835774), CH-223191 (NSC835775), CPI-455 (NSC825282), aza-TdCyd (NSC777586), decitabine (NSC127716), belinostat (NSC758774), entinostat (NSC756642), pevonedistat (NSC761192), tazemetostat (NSC777109), talazoparib (NSC765396), olaparib (NSC753686), selinexor (NSC780203), nedisertib (M3814, NSC802822), bortezomib (NSC756655), venetoclax (NSC766270), doxorubicin (NSC123127), elimusertib (BAY189344, NSC800525), ceralasertib (AZD6738, NSC777638), TAK-243 (NSC785004), alisertib (NSC759677), etoposide (NSC141540), topotecan (NSC609699), eribulin (NSC707389), gemcitabine (NSC613327), carboplatin (NSC241240), cisplatin (NSC119875), and SN-38 (NSC673596) were obtained from the National Cancer Institute (NCI) Developmental Therapeutics Program Chemical Repository (32). The FDA-approved anticancer drug set is available from the Developmental Therapeutics Program at https://dtp.cancer.gov/organization/dscb/obtaining/available plates.htm. […] The stock solutions were prepared in dimethyl sulfoxide (DMSO, Sigma-Aldrich, St. Louis, MO, cat. D2650), except for the platinum compounds which were prepared in saline (Quality Biological, Gaithersburg, MD, cat. 114-055-101), at 800-fold the tested concentration and stored at -70 degrees C prior to their use. All drugs and investigational agents were tested over a range starting from a high concentration at or near the clinical Cmax and decreasing in half-log increments. If the clinical Cmax for an agent had not been determined, the highest concentration tested was 10 microM (Table 1).
Cell Culture. All cells were maintained in an incubator at 37 degrees C and 5% CO2 with 95% humidity. The PDC lines were cultured according to standard operating procedures established by the NCI PDMR (https://pdmr.cancer.gov). Briefly, all PDCs were thawed and cultured in Matrigel-coated flasks prepared with a working solution of 1X Ham's F-12 nutrient mix, without supplementation (Invitrogen, Waltham, MA, cat. 11765054), 100 U/mL penicillin-streptomycin (Invitrogen, cat. 15140122), and 2.5% Matrigel (Corning Inc., Corning, NY, cat. 354248) for the first three passages. All PDCs were cultured in complete DMEM/F-12 media containing advanced DMEM/F-12 (Invitrogen, cat. 12634028), 4.9% defined fetal bovine serum, heat inactivated (HyClone Laboratories Inc., Logan, UT, cat. SH30070.03HI), 389 ng/mL hydrocortisone (Sigma-Aldrich, cat. H4001), 9.7 ng/mL human EGF recombinant protein (Invitrogen, cat. PHG0313), 23.4 microg/mL adenine (Sigma-Aldrich, cat. A2786), 97.3 U/mL penicillin-streptomycin (Invitrogen, cat. 15140122), 1.9 mM L-glutamine (Invitrogen, cat. 25030081), and 9.7 microM Y-27632 dihydrochloride (Tocris Bioscience, Bristol, United Kingdom, cat. 1254). The PDCs were cultured in complete DMEM/F12 media without 10 microM Y-27632 dihydrochloride for at least two passages prior to the screen. The established cell lines NCI-H1341 and […] were cultured in DMEM/F-12, HEPES (Invitrogen, cat. 11330032), 5% defined fetal bovine serum (HyClone Laboratories Inc., cat. SH30070.03), ITS premix universal culture supplement [insulin (5 microg/mL), transferrin (5 microg/mL), and selenious acid (5 ng/mL)] […]

[1] = second compound 0.1 µM, first compound 0.0316 µM
[2] = second compound 0.1 µM, first compound 0.1 µM
[3] = second compound 0.1 µM, first compound 0.316 µM
[4] = second compound 0.1 µM, first compound 1 µM
[5] = second compound 0.1 µM, first compound 3.16 µM
[6] = second compound 0.1 µM, first compound 10 µM
[7] = second compound 0.316 µM, first compound 0.0316 µM
[8] = second compound 0.316 µM, first compound 0.1 µM
[9] = second compound 0.316 µM, first compound 0.316 µM
[10] = second compound 0.316 µM, first compound 1 µM
[11] = second compound 0.316 µM, first compound 3.16 µM
[12] = second compound 0.316 µM, first compound 10 µM
[13] = second compound 1 µM, first compound 0.0316 µM
[14] = second compound 1 µM, first compound 0.1 µM
[15] = second compound 1 µM, first compound 0.316 µM
[16] = second compound 1 µM, first compound 1 µM
[17] = second compound 1 µM, first compound 3.16 µM
[18] = second compound 1 µM, first compound 10 µM
[19] = second compound 3.16 µM, first compound 0.0316 µM
[20] = second compound 3.16 µM, first compound 0.1 µM
[21] = second compound 3.16 µM, first compound 0.316 µM
[22] = second compound 3.16 µM, first compound 1 µM
[23] = second compound 3.16 µM, first compound 3.16 µM
[24] = second compound 3.16 µM, first compound 10 µM
[25] = second compound 10 µM, first compound 0.0316 µM
[26] = second compound 10 µM, first compound 0.1 µM
[27] = second compound 10 µM, first compound 0.316 µM
[28] = second compound 10 µM, first compound 1 µM
[29] = second compound 10 µM, first compound 3.16 µM
[30] = second compound 10 µM, first compound 10 µM
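Note: spheroids exposed to compounds for seven days.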

IC50 (second compound 0.1 µM): 0.00522 µM
IC50 (second compound 0.316 µM): 0.00567 µM
IC50 (second compound 1 µM): 0.00545 µM
IC50 (second compound 3.16 µM): 0.00542 µM
IC50 (second compound 10 µM): 0.00575 µM
SMILES: CC(C)CC(NC(=O)C(Cc1ccccc1)NC(=O)c1cnccn1)B(O)O (stereo not given) + CC(CO)NC(=O)c1cc(-c2ccc(Cl)cc2)nn(-c2cnn(C)c2)c1=O
viability, T/C (second compound 0.1 µM, first compound 0.000949 µM): 97%
viability, T/C (second compound 0.1 µM, first compound 0.003 µM): 86.5%
viability, T/C (second compound 0.1 µM, first compound 0.00949 µM): 10.7%
viability, T/C (second compound 0.1 µM, first compound 0.03 µM): 0.69%
viability, T/C (second compound 0.1 µM, first compound 0.0949 µM): 0.12%
viability, T/C (second compound 0.1 µM, first compound 0.3 µM): 0.12%
viability, T/C (second compound 0.316 µM, first compound 0.000949 µM): 96.1%
viability, T/C (second compound 0.316 µM, first compound 0.003 µM): 99.3%
viability, T/C (second compound 0.316 µM, first compound 0.00949 µM): 11.2%
viability, T/C (second compound 0.316 µM, first compound 0.03 µM): 0.78%
viability, T/C (second compound 0.316 µM, first compound 0.0949 µM): 0.16%
viability, T/C (second compound 0.316 µM, first compound 0.3 µM): 0.08%
viability, T/C (second compound 1 µM, first compound 0.000949 µM): 98.4%
viability, T/C (second compound 1 µM, first compound 0.003 µM): 94%
viability, T/C (second compound 1 µM, first compound 0.00949 µM): 9.2%
viability, T/C (second compound 1 µM, first compound 0.03 µM): 0.72%
viability, T/C (second compound 1 µM, first compound 0.0949 µM): 0.26%
viability, T/C (second compound 1 µM, first compound 0.3 µM): 0.12%
viability, T/C (second compound 3.16 µM, first compound 0.000949 µM): 89.4%
viability, T/C (second compound 3.16 µM, first compound 0.003 µM): 91.6%
viability, T/C (second compound 3.16 µM, first compound 0.00949 µM): 11.7%
viability, T/C (second compound 3.16 µM, first compound 0.03 µM): 0.76%
viability, T/C (second compound 3.16 µM, first compound 0.0949 µM): 0.16%
viability, T/C (second compound 3.16 µM, first compound 0.3 µM): 0.1%
viability, T/C (second compound 10 µM, first compound 0.000949 µM): 91.6%
viability, T/C (second compound 10 µM, first compound 0.003 µM): 113%
viability, T/C (second compound 10 µM, first compound 0.00949 µM): 9.64%
viability, T/C (second compound 10 µM, first compound 0.03 µM): 0.68%
viability, T/C (second compound 10 µM, first compound 0.0949 µM): 0.18%
viability, T/C (second compound 10 µM, first compound 0.3 µM): 0.14%

IC50 (second compound 0.1 µM): 0.696 µM
IC50 (second compound 0.316 µM): 0.62 µM
IC50 (second compound 1 µM): 0.704 µM
IC50 (second compound 3.16 µM): 0.59 µM
IC50 (second compound 10 µM): 0.452 µM
SMILES: Nc1ccccc1NC(=O)c1ccc(CNC(=O)OCc2cccnc2)cc1 + CC(CO)NC(=O)c1cc(-c2ccc(Cl)cc2)nn(-c2cnn(C)c2)c1=O
viability, T/C [1]: 91.9%
viability, T/C [2]: 76.4%
viability, T/C [3]: 61.9%
viability, T/C [4]: 42%
viability, T/C [5]: 31.8%
viability, T/C [6]: 13%
viability, T/C [7]: 85.1%
viability, T/C [8]: 70.3%
viability, T/C [9]: 62.2%
viability, T/C [10]: 43.4%
viability, T/C [11]: 24.6%
viability, T/C [12]: 11.6%
viability, T/C [13]: 92.8%
viability, T/C [14]: 80.2%
viability, T/C [15]: 58.8%
viability, T/C [16]: 44%
viability, T/C [17]: 32.6%
viability, T/C [18]: 11.6%
viability, T/C [19]: 85.4%
viability, T/C [20]: 78.6%
viability, T/C [21]: 59%
viability, T/C [22]: 36.8%
viability, T/C [23]: 31.4%
viability, T/C [24]: 9.96%
viability, T/C [25]: 82.6%
viability, T/C [26]: 74.2%
viability, T/C [27]: 55.5%
viability, T/C [28]: 34%
viability, T/C [29]: 24.1%
viability, T/C [30]: 6.25%

IC50 (second compound 0.1 µM): 1.49 µM
IC50 (second compound 0.316 µM): 1.52 µM
IC50 (second compound 1 µM): 1.51 µM
IC50 (second compound 3.16 µM): 1.32 µM
IC50 (second compound 10 µM): 0.909 µM
SMILES: O=C(C=Cc1cccc(S(=O)(=O)Nc2ccccc2)c1)NO + CC(CO)NC(=O)c1cc(-c2ccc(Cl)cc2)nn(-c2cnn(C)c2)c1=O
viability, T/C [1]: 89.9%
viability, T/C [2]: 91.5%
viability, T/C [3]: 79.6%
viability, T/C [4]: 50.1%
viability, T/C [5]: 40.4%
viability, T/C [6]: 10.1%
viability, T/C [7]: 89.8%
viability, T/C [8]: 84.8%
viability, T/C [9]: 79.4%
viability, T/C [10]: 51%
viability, T/C [11]: 39.9%
viability, T/C [12]: 9.03%
viability, T/C [13]: 96%
viability, T/C [14]: 101%
viability, T/C [15]: 80.8%
viability, T/C [16]: 50.6%
viability, T/C [17]: 40.9%
viability, T/C [18]: 9.28%
viability, T/C [19]: 81.3%
viability, T/C [20]: 86.5%
viability, T/C [21]: 74.1%
viability, T/C [22]: 48%
viability, T/C [23]: 38.1%
viability, T/C [24]: 8.4%
viability, T/C [25]: 86.5%
viability, T/C [26]: 79.1%
viability, T/C [27]: 68.1%
viability, T/C [28]: 43.5%
viability, T/C [29]: 31.9%
viability, T/C [30]: 6.06%
